The text below walks through data of patent US9914723B2, “Small molecule inhibitors of Mcl-1 and uses thereof” (THE REGENTS OF THE UNIVERSITY OF MICHIGAN, priority 2012, dated 2018).

Experiment [1] addresses T1, Mcl-1 (Homo sapiens, UniProt Q07820). The note with it: cited from earlier work.
Experiment [2] deals with T1, Mcl-1. Put plainly: fluorescence polarizing binding assay, binding to Mcl-1. The note with it: for IC50: fluorescence polarizing binding assay; for fold decrease of binding affinity to Mcl-1: in comparison with UMI-1033; for binding / inhibition of Mcl-1 compared with UMI-1033, in words: 4-methyl-1-piperazinyl group of UMI-1033 replaced. How it is done: FIGS. 1, 2, 3, and 4 show various compounds for Formula I having various R1, R2, R3, R4, R5, R6, R7 and R8 groups, and related structure activity relationship (SAR) for each respective compound (IC50 values were determined with fluorescence polarizing binding assay).

Experiment [3] concerns the target Bcl-xL (Homo sapiens, UniProt Q07817). The experiment in a line: Binding affinity against Bcl-2 family anti-apoptotic proteins: Bcl-xL.
Experiment [4] has as its system HL-60. Put plainly: Cellular activity against leukemia human tumor cell lines: HL-60. The class given is cell-based. The note with it: AML-derived cell line. How it is done: (§1) Acute myeloid leukemia (AML) frequently relapses after initial treatment. Drug resistance in AML has been attributed to high levels of the anti-apoptotic Bcl-2 family proteins. Indeed, Mcl-1 is essential for development and survival of acute myelogenous leukemia cells. Therefore the cellular activity of Mcl-1 inhibitors against AML human cancer cell lines was tested. Blockade of Mcl-1 by these inhibitors (see Table 3) killed AML-derived cell lines, HL-60 and MV4-11, but had less impact on the human CML-derived (K562) cell line.

Experiment [5] deals with T1, Mcl-1. Put plainly: Binding affinity against Bcl-2 family anti-apoptotic proteins: Mcl-1.
Experiment [6] deals with MV4-11. Put plainly: Cellular activity against leukemia human tumor cell lines: MV4-11. It counts as cell-based. The conditions noted are these: AML-derived cell line. The protocol: as §1
The target in experiment [7] is T2, Bcl-w (Homo sapiens, UniProt Q92843).
T2 sequence (Q92843 1-193): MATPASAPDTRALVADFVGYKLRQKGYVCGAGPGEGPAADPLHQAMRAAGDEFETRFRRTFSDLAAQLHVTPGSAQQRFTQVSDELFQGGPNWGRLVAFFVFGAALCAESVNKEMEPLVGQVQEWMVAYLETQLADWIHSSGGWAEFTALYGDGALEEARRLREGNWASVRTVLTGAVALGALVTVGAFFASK
The experiment in a line: Binding affinity against Bcl-2 family anti-apoptotic proteins: Bcl-w.

The target of experiment [8] is T3, A1 (Homo sapiens, UniProt Q16548).
T3 sequence (Q16548 1-175): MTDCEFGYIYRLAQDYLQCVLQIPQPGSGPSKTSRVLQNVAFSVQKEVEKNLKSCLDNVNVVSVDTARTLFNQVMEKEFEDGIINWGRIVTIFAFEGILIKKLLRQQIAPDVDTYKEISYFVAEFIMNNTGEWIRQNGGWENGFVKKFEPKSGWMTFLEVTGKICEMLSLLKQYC
The experiment in a line: Binding affinity against Bcl-2 family anti-apoptotic proteins: A1.

In experiment [9] the target is T4, cellular, endogenous Mcl-1 protein (Homo sapiens, UniProt Q07820).
T4 construct: endogenous in cells; host or cells: 2LMP cancer cell line (lysate)
T4 sequence (Q07820 whole entry): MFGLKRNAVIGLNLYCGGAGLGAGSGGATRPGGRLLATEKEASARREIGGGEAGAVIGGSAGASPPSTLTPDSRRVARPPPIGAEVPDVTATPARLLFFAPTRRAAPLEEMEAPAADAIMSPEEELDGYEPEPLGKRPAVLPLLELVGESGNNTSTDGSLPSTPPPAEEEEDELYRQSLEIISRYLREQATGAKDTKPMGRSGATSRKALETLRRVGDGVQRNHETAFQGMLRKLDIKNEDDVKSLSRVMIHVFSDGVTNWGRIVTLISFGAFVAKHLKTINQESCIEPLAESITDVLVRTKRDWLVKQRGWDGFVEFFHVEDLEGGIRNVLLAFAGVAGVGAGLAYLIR
The experiment in a line: Pull-down assay with biotin-labeled Noxa BH3 peptide (BL-Noxa) in 2LMP cell lysate. The class given is binding.

Experiment [10] addresses Bcl-2 (Homo sapiens, UniProt P10415). Put plainly: Binding affinity against Bcl-2 family anti-apoptotic proteins: Bcl-2.
Experiment [11] deals with K562. The experiment in a line: Cellular activity against leukemia human tumor cell lines: K562. It counts as cell-based. The note with it: human CML-derived cell line. How it is done:
as §1

Experiment [12] concerns HL-60 cell line. Put plainly: Induction of apoptosis in HL-60, flow cytometry with Annexin V and propidium iodide double staining; caspase-3 activation. The class given is cell-based, human. The text has this:
To gain insights into the underlying mechanism of action for the cell growth inhibition of this class Mcl-1 inhibitors, the HL-60 cell line was selected and investigated if apoptosis contributes to the antiproliferative effect. Induction of apoptosis was monitored by flow cytometry using Annexin V and propidium iodide double staining.

For experiment [13], the system named is MEF DKO cells. Put plainly: Cell death in Bax/Bak deficient (DKO) MEF cells. It counts as cell-based, mouse. How it is done: (§2) It is known that apoptotic effectors Bak and Bax can be suppressed by multidomain anti-apoptotic proteins such as Mcl-1. To interrogate the mechanism of action, the activity of several novel Mcl-1 inhibitors were evaluated in mouse embryonic fibroblast (MEF) cells that included wild-type (WT) as well as cells deficient in Bax/Bak (DKO).

Experiment [14] relates to MEF WT cells. The experiment in a line: Cell death in wild-type MEF cells. It counts as cell-based, mouse. The protocol:
as §2

Molecules are shown by their SMILES.

Sequence of Bcl-2 (P10415 whole entry, species assumed): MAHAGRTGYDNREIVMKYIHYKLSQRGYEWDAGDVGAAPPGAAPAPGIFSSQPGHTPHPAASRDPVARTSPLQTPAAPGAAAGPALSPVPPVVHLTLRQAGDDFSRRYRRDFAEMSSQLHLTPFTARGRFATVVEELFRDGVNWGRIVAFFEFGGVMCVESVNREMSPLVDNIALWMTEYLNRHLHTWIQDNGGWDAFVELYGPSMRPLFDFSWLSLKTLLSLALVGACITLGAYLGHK
Sequence of Bcl-xL (Q07817 whole entry, species assumed): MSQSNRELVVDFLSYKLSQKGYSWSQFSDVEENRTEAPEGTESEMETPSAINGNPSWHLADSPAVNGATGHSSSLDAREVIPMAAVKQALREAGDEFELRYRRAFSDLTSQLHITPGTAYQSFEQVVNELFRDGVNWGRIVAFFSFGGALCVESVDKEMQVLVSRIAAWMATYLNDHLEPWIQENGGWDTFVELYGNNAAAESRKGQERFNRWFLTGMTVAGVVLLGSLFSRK
T1 sequence (Q07820 whole entry, species assumed): as the sequence (Q07820 whole entry) above

Consider `CN(C)CC[C@H](CSc1ccccc1)Nc1ccc(S(=O)(=O)NC(=O)c2ccc(N3CCN(Cc4ccccc4-c4ccc(Cl)cc4)CC3)cc2)cc1[N+](=O)[O-]` [ABT-737], for which the “binding to Mcl-1” value in [1] is “fails to bind”.

Consider `CCOC(=O)c1c(C)oc2c1c(C(c1ccc(F)cc1)N1CCN(C)CC1)c(O)c1ccccc12` (stereo not drawn) [UMI-118], for which, in [2], the IC50 worked out at 0.19 µM and the “fold decrease of binding affinity to Mcl-1” value is recorded as 3 fold.

On to `CCOC(=O)c1c(C)oc2c1c(C(c1cccc(F)c1)N1CCN(C)CC1)c(O)c1ccccc12` (stereo not drawn) [UMI-1003], for which the 50% inhibitory concentration (IC50) in experiment [2] worked out at 0.2 µM.

As for `CCOC(=O)c1c(C)oc2c1c(C(c1ccncc1)N1CCOCC1)c(O)c1ccccc12` (stereo not drawn) [UMI-1007], the Ki in experiment [3] is greater than 30 µM; in experiment [5] it was 0.02 µM; in experiment [7], greater than 30 µM; in experiment [8], greater than 25 µM; in experiment [10], greater than 30 µM. The EC50 was 16 µM in [4] and 12.8 µM in [6]. Further, the “disruption of the interactions between BL-Noxa and cellular Mcl-1” value in experiment [9] was “effectively disrupted the interactions between BL-Noxa and cellular Mcl-1”.

With `CCOC(=O)c1c(C)oc2c1c(C(c1ccncc1)N1CCN(CC)CC1)c(O)c1ccccc12` (stereo not drawn) [UMI-1008], the “binding / inhibition of Mcl-1 compared with UMI-1033, in words” value in experiment [2] is “kept same”.

In the case of `CCOC(=O)c1c(C)oc2c1c(C(c1ccncc1)N1CCN(C(C)C)CC1)c(O)c1ccccc12` (stereo not drawn) [UMI-1009], the Ki in experiment [3] was greater than 30 µM; in experiment [5], 0.015 µM; in experiment [7], greater than 30 µM; in experiment [8], greater than 25 µM; in [10] it was greater than 30 µM. For the same molecule, in experiment [2], the “binding / inhibition of Mcl-1 compared with UMI-1033, in words” value is “kept same”. Further, the values for the EC50 in [4], in experiment [11] and in [6] were 3.98 µM, greater than 30 µM and 7.15 µM, respectively. Further, the caspase-3 activation result in experiment [12] (HL-60) is “activation of caspase-3”. Also, the induction of apoptosis in experiment [12] (HL-60, 5 μM) stood at 37%; in experiment [12] (HL-60, 10 μM), 57%.

Turning to `CCOC(=O)c1c(C)oc2c1c(C(c1ccncc1)N1CCc3ccccc3C1)c(O)c1ccccc12` (stereo not drawn) [UMI-1011], in [2], the IC50 is 0.19 µM and the “fold decrease of binding affinity to Mcl-1” value stood at 3 fold.

`CCOC(=O)c1c(C)oc2c1c(C(c1ccnc(Cl)c1)N1CCOCC1)c(O)c1ccccc12` (stereo not drawn) [UMI-1026]: the Ki in experiment [3] was greater than 30 µM; in [5], 0.03 µM; in experiment [7], greater than 30 µM; in [8], greater than 25 µM; in experiment [10], greater than 30 µM.

`CCOC(=O)c1c(C)oc2c1c(C(c1ccncc1)N1CCN(C)CC1)c(O)c1ccccc12` (stereo not drawn) [UMI-1033]: the Ki in experiment [3] is greater than 30 µM; in [5], 0.02 µM; in experiment [7] it was greater than 30 µM; in [8] it was greater than 25 µM; in experiment [10], 16.7 µM. Besides, the EC50 was 11.3 µM in experiment [4], greater than 30 µM in experiment [11] and 7.05 µM in [6].

Turning to `COC(=O)c1c(C)oc2c1c(C(c1ccncc1)N1CCN(C)CC1)c(O)c1ccccc12` (stereo not drawn) [UMI-1035], the Ki in experiment [3] was greater than 30 µM; in experiment [5], 0.015 µM; in experiment [7], 28 µM; in experiment [8], greater than 25 µM; in experiment [10], 13.8 µM. The “cell death in MEF DKO” value in [13] is reported as “not in MEF DKO cells”. The EC50 in experiment [4] (Homo sapiens, HL-60) amounted to 12.3 µM; in experiment [11] (K562) it was 24.6 µM; in experiment [6] (Homo sapiens, MV4-11), 6.16 µM. In experiment [14], the “cell death in MEF WT” value is reported as “induced cell death”.

As to `COC(=O)c1c(C)oc2c1c(C(c1ccncc1)N1CCOCC1)c(O)c1ccccc12` (stereo not drawn) [UMI-1036], the “cell death in MEF DKO” value in experiment [13] is on record as “not in MEF DKO cells”. For the same molecule, the EC50 is 16.2 µM in [4], greater than 30 µM in experiment [11] and 8.22 µM in experiment [6]. In addition, the “cell death in MEF WT” value in experiment [14] is recorded as “induced cell death”.

For `CCOC(=O)CN1CCN(C(c2ccncc2)c2c(O)c3ccccc3c3oc(C)c(C(=O)OCC)c23)CC1` (stereo not drawn) [UMI-1042], the “cell death in MEF DKO” value in experiment [13] is on record as “not in MEF DKO cells”. Besides, the EC50 in [4] is 14.7 µM; in [11] it was greater than 30 µM; in experiment [6], 10.1 µM. The “cell death in MEF WT” value in experiment [14] is given as “induced cell death”.
